Measurements reported in patent publication US11191744B2, “Pharmaceutical active ingredient and use thereof, in particular for the prevention and treatment of metabolic disorders in humans and animals” (VALBIOTIS, priority 2017, dated 2021).
“And” between values parts separate entries of the source, which are not always exact repeats. Equal values may be shown once.

Experiments:
Format in all cases: in vivo
db/db mice [1] = assay: Fasting insulinemia in db/db mice after 6 weeks of treatment; conditions: for median insulinemia compared with CONTROL (in words): db/db mice, after 6 weeks of treatment; for Median values of insulinemia after 6 weeks of treatment: male db/db mice, fasted 6 h, compositions in the diet
Method: (§1) The composition was also compared to metformin, one of the main pharmaceutical molecules prescribed for the treatment of type 2 diabetes.
(§2) Experiments were performed on db/db mice, a model mimicking the characteristics of type 2 diabetes in humans (Roesler W J et al., Mol Cell Biochem 1990; 92(2):99-106). These mice are insulin-resistant, hypertriglyceridemic, and glucose intolerant. They very quickly develop pre-diabetes, a type 2 diabetes and then NASH.
FIG. 1 illustrates the evolution of insulinemia and glycemia (glucose) over time in this model (Joost H G et al., Animal Models in Diabetes Research, Humana Press). As for humans, the rise in glycemia is initially accompanied by an increase in insulinemia (associated with insulin resistance), evidence of a pancreas still able to secrete insulin, then a decrease, reflecting functional degeneration of the pancreas, and thus progression of type 2 diabetes with the need for insulin therapy (Kobayashi K et al., Metabolism: Clinical and experimental 2,000; 49:22-31 Tao H et al Nat Med 2014; 20(11):1263-1269).
(§3) The experimental time for the trial was […] with a 1 week run-in followed by 6 weeks of treatment. The male mice were 6 weeks old at the start of treatment. The (1S,3R,4R,5R)-3-{[(2E)-3-(3,4-dihydroxyphenyl)-2-propenoyl]oxy}-1,4,5-trihydroxycyclohexanecarboxylic acid alone, the methyl (2S,3E,4S)-4-{2-[2-(3,4-dihydroxyphenyl)ethoxy]-2-oxoethyl}-3-ethylidene-2-(β-D-glucopyranosyloxy)-3,4-dihydro-2H-pyran-5-carboxylate alone, and the mixture of these two molecules in a ratio of 1/4.65 have been tested and compared with metformin. These compositions were directly integrated into the diet of rodents, thus ensuring large-scale use, with injections, for example, intravenous, being limited to a small number given their mode of administration.
(§4) After randomization by weight and fasting glycemia, the animals were divided into the following groups: • Control (n=15): CONTROL; • Metformin (n=12, 0.2% of the diet): MET; • (1S,3R,4R,5R)-3-{[(2E)-3-(3,4-dihydroxyphenyl)-2-propenoyl]oxy}-1,4,5-trihydroxycyclohexanecarboxylic acid (n=12, 0.026% of the diet): V63X35; • The methyl (2S,3E,4S)-4-{2-[2-(3,4-dihydroxyphenyl)ethoxy]-2-oxoethyl}-3-ethylidene-2-(β-D-glucopyranosyloxy)-3,4-dihydro-2H-pyran-5-carboxylate (n=11, 0.12% of diet): V63X54; • The (1S,3R,4R,5R)-3-{[(2E)-3-(3,4-dihydroxyphenyl)-2-propenoyl]oxy}-1,4,5-trihydroxycyclohexanecarboxylic acid+methyl (2S,3E,4S)-4-{2-[2-(3,4-dihydroxyphenyl)ethoxy]-2-oxoethyl}-3-ethylidene-2-(β-D-glucopyranosyloxy)-3,4-dihydro-2H-pyran-5-carboxylate (n=11, respectively 0.026% and 0.12% of the feed): V63,000.
(§5) Experimental evaluations performed on an empty stomach (6 h) after 6 weeks of treatment were in particular concerned with: • The measurement of weight; • Measuring glycemia; • Measuring of insulinemia; • Measuring of serum triglycerides.

db/db mice [2] = assay: Fasting glycemia in db/db mice after 6 weeks of treatment; conditions: for effect on fasting glycemia (in words): db/db mice, after 6 weeks of treatment, versus CONTROL; for Fasting glycemia after 6 weeks of treatment: male db/db mice, fasted 6 h, compositions in the diet, mean values ± SEM
Method: as §1, §2, §3, §4, §5
The synergistic effect on fasting glycemia was evaluated according to the Colby SR method described in “Calculation of the synergistic and antagonistic responses of herbicide combinations” Weeds, 1967, 15:20-22. A factor>1 indicates the existence of a synergistic effect. A factor<1 indicates the existence of an antagonist.
V63X54 represents the percent change in glycemia for the V63X54 group compared to the CONTROL group.

db/db mice [3] = assay: Fasting serum triglycerides in db/db mice after 6 weeks of treatment
Method: as §1, §2
as §3, with “administration. […]” for “administration.”

SMILES | median insulinemia compared with CONTROL (in words) (db/db mice [1]) | Median values of insulinemia after 6 weeks of treatment (db/db mice [1]) [ng/mL] | effect on fasting glycemia (in words) (db/db mice [2]) | Fasting glycemia after 6 weeks of treatment (db/db mice [2]) | reduction of blood triglyceride levels (db/db mice [3]; db/db mice, after 6 weeks of treatment, versus CONTROL) [%] | Serum triglycerides after 6 weeks of treatment (db/db mice [3]; male db/db mice, fasted 6 h, compositions in the diet, mean values ± SEM) [mg/dL]
C/C=C1/[C@H](O[C@@H]2O[C@H](CO)[C@@H](O)[C@H](O)[C@H]2O)OC=C(C(=O)OC)[C@H]1CC(=O)OCCc1ccc(O)c(O)c1 [V63X54, methyl (2S,3E,4S)-4-{2-[2-(3,4-dihydroxyphenyl)ethoxy]-2-oxoethyl}-3-ethylidene-2-(β-D-glucopyranosyloxy)-3,4-dihydro-2H-pyran-5-carboxylate] | no difference | 25.44 | no effect | 432 ± 27 mg/dL | – | –
CN(C)C(=N)N=C(N)N [MET, metformin, reference compound] | – | 21.89 | no effect | 454 mg/dL and 454 ± 34 mg/dL | 35.6 | 132.6 ± 7.4
O=C(/C=C/c1ccc(O)c(O)c1)O[C@@H]1C[C@](O)(C(=O)O)C[C@@H](O)[C@H]1O [V63X35, (1S,3R,4R,5R)-3-{[(2E)-3-(3,4-dihydroxyphenyl)-2-propenoyl]oxy}-1,4,5-trihydroxycyclohexanecarboxylic acid] | no difference | 22.39 | no effect | 454 ± 34 mg/dL | – | –
